Data set [1] deals with T1, CES2 (cocaine esterase) (Homo sapiens, UniProt O00748).
T1 sequence (O00748 whole entry): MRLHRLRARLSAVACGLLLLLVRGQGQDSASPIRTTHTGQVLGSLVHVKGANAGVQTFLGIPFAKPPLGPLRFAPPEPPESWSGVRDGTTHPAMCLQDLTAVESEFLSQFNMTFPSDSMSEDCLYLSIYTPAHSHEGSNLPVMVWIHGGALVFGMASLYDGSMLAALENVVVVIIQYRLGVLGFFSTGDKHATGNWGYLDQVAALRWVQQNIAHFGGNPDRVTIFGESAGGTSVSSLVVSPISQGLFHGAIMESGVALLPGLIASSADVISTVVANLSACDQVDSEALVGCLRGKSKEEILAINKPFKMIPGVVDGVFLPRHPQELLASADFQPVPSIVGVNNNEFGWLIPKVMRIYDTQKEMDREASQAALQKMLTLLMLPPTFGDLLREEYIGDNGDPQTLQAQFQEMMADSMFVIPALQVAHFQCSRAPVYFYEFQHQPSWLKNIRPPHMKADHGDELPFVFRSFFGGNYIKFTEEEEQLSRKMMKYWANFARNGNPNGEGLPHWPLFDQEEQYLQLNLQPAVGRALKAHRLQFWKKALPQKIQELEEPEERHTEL
Kind of data set: Inhibition of human recombinant CES2 activity assessed as fluorescence of the AP product using Benz-AP as substrate by measuring residual activity at 40 uM relative to control. The following applies: recombinant CES2, probe Benz-AP.

Data set [2] addresses T1, CES2 (cocaine esterase). Kind of data set: in vitro. The following applies: recombinant CES2, probe CPT-11 (conversion to SN-38).
For another data set, the target named is T2, Cocaine esterase (Homo sapiens, UniProt O00748).
T2 sequence (O00748 whole entry): T1 sequence (O00748 whole entry)
Kind of data set: Inhibition of human recombinant CES2 activity assessed as fluorescence of the AP product using Benz-AP as substrate.

Data set [3] is described as follows: Inhibition of human CES1 activity at 40 uM measured after 20 mins.
The next data set relates to PANC-1. As to the kind of experiment: Cytotoxicity against human PANC-1 cells assessed as cell viability incubated for 14 days by crystal violet-based clonogenic assay. The note with it: PANC-1, 336 h.

A word on the inhibition: it is the relative decrease from the control value, in per cent. A word on the IC50: it is the concentration that inhibits the measured activity by half.

On to `CCn1c(=O)c2sc(N3CCCC3)nc2n(CC(=O)Nc2cccc(Cl)c2C)c1=O`, for which the activity at 40 µM at CES2 (cocaine esterase) [1] was determined as 37%. For the same compound, the inhibition at 10 min, 12 µM at CES2 (cocaine esterase) [2] is 51%.
For the compound `COc1cc2c(cc1OC)C(C)N(C(=O)c1cc3c(s1)-c1ccccc1S(=O)(=O)C3)CC2` (configuration not stated), the IC50 on Cocaine esterase is less than 10 nM. The activity at 40 µM at CES2 (cocaine esterase) [1] is 13%. Besides, on CES2 (cocaine esterase) [2], the inhibition at 10 min, 12 µM is 31%.
The compound `CC(C)c1ccccc1OC(=O)NCCc1ccc2ccccc2c1` registered an IC50 in data set [3] of 23 nM.
`Cc1ccc(Nc2nc(C(=O)NCc3ccccc3)cc3occc23)cc1`: the IC50 at Cocaine esterase was less than 10 nM. In addition, the activity at 40 µM at CES2 (cocaine esterase) [1] was determined as 3%. The inhibition at 10 min, 12 µM on CES2 (cocaine esterase) [2] is 63%.
On the same counts, the results for `O=C(CSc1cn(CC(=O)N2CCCC2)c2ccccc12)Nc1ccc(F)cc1F` are less than 10 nM, 0.9% and 91%.
Consider `Cc1ccc(CN2Cc3cc4ccc(C)c(C)c4nc3OC2=O)o1`, for which the IC50 at Cocaine esterase was 18 nM; in data set [3], 61 nM. In addition, at CES2 (cocaine esterase) [1], the activity at 40 µM stood at 0.2%.
For `CCc1c2c(nc3ccc(OC(=O)N4CCC(N5CCCCC5)CC4)cc13)-c1cc3c(c(=O)n1C2)COC(=O)[C@]3(O)CC` [IRINOTECAN], in the data set on PANC-1, the IC50 is 11000 nM.
For `CC(C)CN1C(=O)CCc2cc(NC(=O)Cc3cccc(F)c3)ccc21`, the IC50 on Cocaine esterase is 177 nM. In addition, the activity at 40 µM on CES2 (cocaine esterase) [1] was -0.17%. Moreover, the inhibition at 10 min, 12 µM at CES2 (cocaine esterase) [2] came out at 95%.
On the same counts, the results for `CCOc1ccc2ncc(S(=O)(=O)c3ccc(OC)cc3)c(N3CCC4(CC3)OCCO4)c2c1` are 66 nM, 1.3% and 94%.

Source of the values: ChEMBL document CHEMBL5537194, “Tight-Binding Small-Molecule Carboxylesterase 2 Inhibitors Reduce Intracellular Irinotecan Activation” (J Med Chem, 2024).
